In general, EC50 refers to the midpoint of the concentration-response curve. Usually Emax stands for the greatest response seen or fitted, relative to the assay's reference.

These results are taken from US9642831B2, “Substituted chromanes and method of use” (AbbVie S.á.r.l., priority 2014, dated 2017).

This assay concerns the target F508delCFTR (Homo sapiens, UniProt P13569, DEL508-508). As to the kind of experiment: Cell Surface Expression-Horse Radish Peroxidase (CSE-HRP) assay. It is filed as cell-based. Details: expressed in transfected cells; host or cells: CFBE41o- human lung derived epithelial cell line, doxycycline-inducible. The following applies: CFBE4lo-F508delCFTR-HRP cells; for EC50: 18-24 hours at 33° C., 8-point curve, highest concentration 20 μM, luminescence readout; for Emax: maximum % activity at any tested concentration, normalized to on-plate positive control (3 μM Example 1). The procedure, abridged: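 Following 18-24 h compound exposure at 33° C. Expression was doxycycline-induced beforehand. % activity versus DMSO and a 3 μM corrector control gave maximum activity and EC50 from a variable-Hill sigmoidal fit.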

Sequence of F508delCFTR (P13569 with tags, fused parts or gaps DEL508-508): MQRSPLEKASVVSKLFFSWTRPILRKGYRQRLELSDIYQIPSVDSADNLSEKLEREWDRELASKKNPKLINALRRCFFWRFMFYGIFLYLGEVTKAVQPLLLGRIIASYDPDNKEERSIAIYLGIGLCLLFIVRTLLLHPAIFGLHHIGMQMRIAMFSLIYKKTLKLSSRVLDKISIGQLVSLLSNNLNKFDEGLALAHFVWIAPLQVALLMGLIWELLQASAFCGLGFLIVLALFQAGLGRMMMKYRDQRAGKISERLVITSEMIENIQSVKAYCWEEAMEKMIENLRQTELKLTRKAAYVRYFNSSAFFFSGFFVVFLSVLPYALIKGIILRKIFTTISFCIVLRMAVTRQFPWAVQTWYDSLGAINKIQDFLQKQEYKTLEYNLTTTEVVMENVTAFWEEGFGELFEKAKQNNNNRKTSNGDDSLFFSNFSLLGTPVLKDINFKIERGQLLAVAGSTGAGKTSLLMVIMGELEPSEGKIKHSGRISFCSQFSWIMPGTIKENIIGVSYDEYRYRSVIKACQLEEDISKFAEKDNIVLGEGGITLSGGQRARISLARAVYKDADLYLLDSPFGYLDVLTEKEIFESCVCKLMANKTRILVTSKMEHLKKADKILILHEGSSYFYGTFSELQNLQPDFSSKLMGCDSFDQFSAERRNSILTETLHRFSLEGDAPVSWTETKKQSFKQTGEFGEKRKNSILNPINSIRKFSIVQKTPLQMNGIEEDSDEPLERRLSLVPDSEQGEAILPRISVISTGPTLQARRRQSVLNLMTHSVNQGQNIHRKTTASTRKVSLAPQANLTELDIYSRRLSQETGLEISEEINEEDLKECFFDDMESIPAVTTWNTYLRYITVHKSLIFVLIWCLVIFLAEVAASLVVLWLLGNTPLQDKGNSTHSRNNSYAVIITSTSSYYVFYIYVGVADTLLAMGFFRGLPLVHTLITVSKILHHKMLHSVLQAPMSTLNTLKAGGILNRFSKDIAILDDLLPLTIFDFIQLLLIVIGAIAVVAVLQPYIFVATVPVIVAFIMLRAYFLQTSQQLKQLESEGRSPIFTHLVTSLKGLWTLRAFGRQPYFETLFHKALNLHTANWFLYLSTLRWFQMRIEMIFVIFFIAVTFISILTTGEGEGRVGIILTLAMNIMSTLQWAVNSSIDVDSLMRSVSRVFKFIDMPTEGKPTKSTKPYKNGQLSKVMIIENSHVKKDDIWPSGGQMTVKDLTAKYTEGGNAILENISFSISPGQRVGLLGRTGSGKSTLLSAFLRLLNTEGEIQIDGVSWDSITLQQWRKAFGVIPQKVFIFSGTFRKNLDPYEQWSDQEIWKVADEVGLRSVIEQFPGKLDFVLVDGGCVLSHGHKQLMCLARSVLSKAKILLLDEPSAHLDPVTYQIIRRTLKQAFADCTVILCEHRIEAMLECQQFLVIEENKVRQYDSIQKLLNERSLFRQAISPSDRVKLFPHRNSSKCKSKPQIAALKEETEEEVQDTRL

Consider `COc1ccc2c(c1)O[C@@H](C(=O)N1CCCOCC1)C[C@H]2NC(=O)C1(c2ccc3c(c2)OC(F)(F)O3)CC1` (racemic) [Example 175, rac-1-(2,2-difluoro-1,3-benzodioxol-5-yl)-N-[(2R,4R)-7-methoxy-2-(1,4-oxazepan-4-ylcarbonyl)-3,4-dihydro-2H-chromen-4-yl]cyclopropanecarboxamide], for which the EC50 came to 3200 nM and the Emax was determined as 54%.
For `COc1ccc2c(c1)OC(C1CNC1)CC2NC(=O)C1(c2ccc3c(c2)OC(F)(F)O3)CC1` (centres unmarked) [Example 116, N-[2-(azetidin-3-yl)-7-methoxy-3,4-dihydro-2H-chromen-4-yl]-1-(2,2-difluoro-1,3-benzodioxol-5-yl)cyclopropanecarboxamide] the same measures were 7640 nM and 59%.
`O=C(O)c1csc([C@H]2C[C@@H](NC(=O)C3(c4ccc5c(c4)OC(F)(F)O5)CC3)c3ccccc3O2)n1` (stereo in doubt) [Example 145, rel-2-[(2R,4R)-4-({[1-(2,2-difluoro-1,3-benzodioxol-5-yl)cyclopropyl]carbonyl}amino)-3,4-dihydro-2H-chromen-2-yl]-1,3-thiazole-4-carboxylic acid] came in with an EC50 of 2450 nM and an Emax of 96%.
On the same counts, the results for `O=C(N[C@@H]1CC(CF)(CF)Oc2cc(F)ccc21)C1(c2ccc3c(c2)OC(F)(F)O3)CC1` [Example 79, 1-(2,2-difluoro-1,3-benzodioxol-5-yl)-N-[(4R)-7-fluoro-2,2-bis(fluoromethyl)-3,4-dihydro-2H-chromen-4-yl]cyclopropanecarboxamide] are 7250 nM and 117%.
On the same counts, the results for `CC1(C)CC(NC(=O)C2(c3ccc4c(c3)OC(F)(F)O4)CC2)c2ccc(OC(F)F)cc2O1` (centres unmarked) [Example 125, 1-(2,2-difluoro-1,3-benzodioxol-5-yl)-N-[7-(difluoromethoxy)-2,2-dimethyl-3,4-dihydro-2H-chromen-4-yl]cyclopropanecarboxamide] are 2140 nM and 115%.
On the same counts, the results for `COc1ccc2c(c1)OC(c1ccc(Cl)cc1)CC2NC(=O)C1(c2ccc3c(c2)OC(F)(F)O3)CC1` (centres unmarked) [Example 63, N-[2-(4-chlorophenyl)-7-methoxy-3,4-dihydro-2H-chromen-4-yl]-1-(2,2-difluoro-1,3-benzodioxol-5-yl)cyclopropanecarboxamide] are 630 nM and 106%.
Consider `COC(=O)c1ccc2c(c1)[C@H](NC(=O)C1(c3ccc4c(c3)OC(F)(F)O4)CC1)C[C@H](c1cccc(OC)c1)O2` [Example 47, methyl (2R,4R)-4-({[1-(2,2-difluoro-1,3-benzodioxol-5-yl)cyclopropyl]carbonyl}amino)-2-(3-methoxyphenyl)-3,4-dihydro-2H-chromene-6-carboxylate], for which a half-maximal response (EC50) required 4000 nM and the Emax was 43%.
Compound `CCOC(=O)c1cnc([C@@H]2C[C@H](NC(=O)C3(c4ccc5c(c4)OC(F)(F)O5)CC3)c3ccccc3O2)s1` (stereo in doubt) [Example 132, ethyl rel-2-[(2S,4S)-4-({[1-(2,2-difluoro-1,3-benzodioxol-5-yl)cyclopropyl]carbonyl}amino)-3,4-dihydro-2H-chromen-2-yl]-1,3-thiazole-5-carboxylate] showed an EC50 of 3440 nM and an Emax of 86%.
For `O=C(O)c1cccc([C@H]2C[C@@H](NC(=O)C3(c4ccc5c(c4)OC(F)(F)O5)CC3)c3ccc(OCc4ccccc4)cc3O2)c1` [Example 98, 3-[(2R,4R)-7-(benzyloxy)-4-({[1-(2,2-difluoro-1,3-benzodioxol-5-yl)cyclopropyl]carbonyl}amino)-3,4-dihydro-2H-chromen-2-yl]benzoic acid] the same measures were 570 nM and 102%.
On the same counts, the results for `CCOC(=O)c1cccc([C@@H]2C[C@H](NC(=O)C3(c4ccc5c(c4)OC(F)(F)O5)CC3)c3ccncc3O2)c1` (stereo in doubt) [Example 24, ethyl rel-3-[(2S,4S)-4-({[1-(2,2-difluoro-1,3-benzodioxol-5-yl)cyclopropyl]carbonyl}amino)-3,4-dihydro-2H-pyrano[2,3-c]pyridin-2-yl]benzoate] are 8370 nM and 63%.
For `COC(=O)c1ccc2c(c1)[C@H](NC(=O)C1(c3ccc4c(c3)OC(F)(F)O4)CC1)C[C@H](C1CCCC(OC)C1)O2` (stereo partly drawn) [Example 46, methyl (2R,4R)-4-({[1-(2,2-difluoro-1,3-benzodioxol-5-yl)cyclopropyl]carbonyl}amino)-2-(3-methoxycyclohexyl)-3,4-dihydro-2H-chromene-6-carboxylate] the same measures were 5140 nM and 27%.
Compound `O=C(O)C1CCCC([C@H]2C[C@@H](NC(=O)C3(c4ccc5c(c4)OC(F)(F)O5)CC3)c3ccc(F)cc3O2)C1` (stereo partly drawn) [Example 36, 3-[(2R,4R)-4-({[1-(2,2-difluoro-1,3-benzodioxol-5-yl)cyclopropyl]carbonyl}amino)-7-fluoro-3,4-dihydro-2H-chromen-2-yl]cyclohexanecarboxylic acid] returned an EC50 of 1820 nM and an Emax of 78%.
On the same counts, the results for `COC(=O)C12CC([C@H]3C[C@@H](NC(=O)C4(c5ccc6c(c5)OC(F)(F)O6)CC4)c4ccc(OC)cc4O3)(C1)C2` (racemic) [Example 147, methyl rac-3-[(2R,4R)-4-({[1-(2,2-difluoro-1,3-benzodioxol-5-yl)cyclopropyl]carbonyl}amino)-7-methoxy-3,4-dihydro-2H-chromen-2-yl]bicyclo[1.1.1]pentane-1-carboxylate] are 2040 nM and 78%.
Turning to `O=C(NC1CC(c2ccccc2)Oc2ccccc21)C1(c2ccc3c(c2)OC(F)(F)O3)CC1` (centres unmarked) [Example 67, 1-(2,2-difluoro-1,3-benzodioxol-5-yl)-N-(2-phenyl-3,4-dihydro-2H-chromen-4-yl)cyclopropanecarboxamide], the EC50 stood at 5890 nM and the maximal effect (Emax) was found to be 128%.
On the same counts, the results for `COc1ccc2c(c1)O[C@@H](C(=O)NC1CCS(=O)(=O)CC1)C[C@@H]2NC(=O)C1(c2ccc3c(c2)OC(F)(F)O3)CC1` (racemic) [Example 191, rac-(2R,4S)-4-({[1-(2,2-difluoro-1,3-benzodioxol-5-yl)cyclopropyl]carbonyl}amino)-N-(1,1-dioxidotetrahydro-2H-thiopyran-4-yl)-7-methoxy-3,4-dihydro-2H-chromene-2-carboxamide] are 4100 nM and 51%.
On the same counts, the results for `Cc1ccc2c(c1)O[C@@H](c1cccc(C(=O)N3CCOC(CO)C3)c1)C[C@H]2NC(=O)C1(c2ccc3c(c2)OC(F)(F)O3)CC1` (stereo partly drawn) [Example 53, 1-(2,2-difluoro-1,3-benzodioxol-5-yl)-N-[(2R,4R)-2-(3-{[2-(hydroxymethyl)morpholin-4-yl]carbonyl}phenyl)-7-methyl-3,4-dihydro-2H-chromen-4-yl]cyclopropanecarboxamide] are 1760 nM and 90%.
For `COc1ccc2c(c1)O[C@@H](C(=O)NC(CO)c1ccccc1)C[C@H]2NC(=O)C1(c2ccc3c(c2)OC(F)(F)O3)CC1` (mixture of isomers) [Example 171, rac-(2R,4R)-4-({[1-(2,2-difluoro-1,3-benzodioxol-5-yl)cyclopropyl]carbonyl}amino)-N-(2-hydroxy-1-phenylethyl)-7-methoxy-3,4-dihydro-2H-chromene-2-carboxamide] the same measures were 2290 nM and 40%.
As to `O=C(O)c1cccc([C@H]2C[C@H](NC(=O)C3(c4ccc5c(c4)OC(F)(F)O5)CC3)c3cccnc3O2)c1` (racemic) [Example 32, rac-3-[(2R,4S)-4-({[1-(2,2-difluoro-1,3-benzodioxol-5-yl)cyclopropyl]carbonyl}amino)-3,4-dihydro-2H-pyrano[2,3-b]pyridin-2-yl]benzoic acid], the EC50 was no less than 20000 nM and the Emax came out at 16%.
For `COC(=O)c1ccc([C@H]2C[C@@H](NC(=O)C3(c4ccc5c(c4)OC(F)(F)O5)CC3)c3ccc(OC)cc3O2)cc1F` [Example 137, methyl 4-[(2R,4R)-4-({[1-(2,2-difluoro-1,3-benzodioxol-5-yl)cyclopropyl]carbonyl}amino)-7-methoxy-3,4-dihydro-2H-chromen-2-yl]-2-fluorobenzoate] the same measures were 140 nM and 131%.
For `COCCOc1ccc2c(c1)O[C@@H](c1cccc(C(=O)O)c1)C[C@H]2NC(=O)C1(c2ccc3c(c2)OC(F)(F)O3)CC1` [Example 97, 3-[(2R,4R)-4-({[1-(2,2-difluoro-1,3-benzodioxol-5-yl)cyclopropyl]carbonyl}amino)-7-(2-methoxyethoxy)-3,4-dihydro-2H-chromen-2-yl]benzoic acid] the same measures were 380 nM and 90%.
On the same counts, the results for `COc1ccc2c(c1)O[C@@H](C(=O)NC(CO)c1ccccc1OC)C[C@H]2NC(=O)C1(c2ccc3c(c2)OC(F)(F)O3)CC1` (mixture of isomers) [Example 178, rac-(2R,4R)-4-({[1-(2,2-difluoro-1,3-benzodioxol-5-yl)cyclopropyl]carbonyl}amino)-N-[2-hydroxy-1-(2-methoxyphenyl)ethyl]-7-methoxy-3,4-dihydro-2H-chromene-2-carboxamide] are 740 nM and 64%.
The compound `COc1ccc2c(c1)OC(c1ccc(Cl)c(Cl)c1)CC2NC(=O)C1(c2ccc3c(c2)OC(F)(F)O3)CC1` (centres unmarked) [Example 61, N-[2-(3,4-dichlorophenyl)-7-methoxy-3,4-dihydro-2H-chromen-4-yl]-1-(2,2-difluoro-1,3-benzodioxol-5-yl)cyclopropanecarboxamide] had a concentration for a half-maximal effect (EC50) of 2040 nM and an Emax of 132%.
